Read-outs that look alike come from different tables or passages of the source.
Molecular target: T1, GST fusion protein containing the Met kinase domain (Homo sapiens, UniProt P08581)
T1 construct: Purified GST fusion protein containing the Met kinase domain, SUGEN, Inc
Experiment: MET transphosphorylation assay (ELISA, poly(glu-tyr) substrate)
Type: biochemical
Procedure: MET Transphosphorylation Assay
This assay is used to measure phosphotyrosine levels on a poly(glutamic acid:tyrosine, 4:1) substrate as a means for identifying agonists/antagonists of met transphosphorylation of the substrate.
Purified GST fusion protein containing the Met kinase domain, SUGEN, Inc.
10% aqueous (MilliQue H2O) DMSO.
2× Kinase Dilution Buffer: for 100 mL, mix 10 mL 1M HEPES at pH 7.5 with 0.4 mL 5% BSA/PBS, 0.2 mL 0.1 M sodium orthovanadate and 1 mL 5M sodium chloride in 88.4 mL dH2O.
4× ATP Reaction Mixture: for 10 mL, mix 0.4 mL 1 M manganese chloride and 0.02 mL 0.1 M ATP in 9.56 mL dH2O.
4× Negative Controls Mixture: for 10 mL, mix 0.4 mL 1 M manganese chloride in 9.6 mL dH2O.
Antibody Dilution Buffer: for 100 mL, mix 10 mL 5% BSA/PBS, 0.5 mL 5% Carnation® Instant Milk in PBS and 0.1 mL 0.1 M sodium orthovanadate in 88.4 mL TBST.
Rabbit polyclonal antophosphotyrosine antibody, SUGEN, Inc.
Goat anti-rabbit horseradish peroxidase conjugated antibody, Biosource, Inc.
ABTS Solution: for 1 L, mix 19.21 g citric acid, 35.49 g Na2HPO4 and 500 mg ABTS with sufficient dH2O to make 1 L.
ABTS/H2O2: mix 15 mL ABST solution with 2 μL H2O2 five minutes before use.
Coat ELISA plates with 2 μg Poly(Glu-Tyr) in 100 μL PBS, hold-overnight at 4° C.
Block plate with 150 μL of 5% BSA/PBS for 60 min.
Wash plate twice with PBS then once with 50 mM Hepes buffer pH 7.4.
Add 50 μl of the diluted kinase to all wells. (Purified kinase is diluted with Kinase Dilution Buffer. Final concentration should be 10 ng/well.)
Add 25 μL of the test compound (in 4% DMSO) or DMSO alone (4% in dH2O) for controls to plate.
Incubate the kinase/compound mixture for 15 minutes.
Add 25 μL of 40 mM MnCl2 to the negative control wells.
Add 25 μL ATP/MnCl2 mixture to the all other wells (except the negative controls). Incubate for 5 min.
Add 25 μL 500 mM EDTA to stop reaction.
Add 100 μL rabbit polyclonal anti-Ptyr diluted 1:10,000 in Antibody Dilution Buffer to each well. Incubate, with shaking, at room temperature for one hour.
Add 100 μL per well and incubate at room temperature, with shaking, for one hour.
Add 100 μl of ABTS/H2O2 solution to each well.
If necessary, stop the development reaction with the addition of 100 μl of 0.2M HCl per well.

T1 sequence (P08581 1078-1345 limits assumed): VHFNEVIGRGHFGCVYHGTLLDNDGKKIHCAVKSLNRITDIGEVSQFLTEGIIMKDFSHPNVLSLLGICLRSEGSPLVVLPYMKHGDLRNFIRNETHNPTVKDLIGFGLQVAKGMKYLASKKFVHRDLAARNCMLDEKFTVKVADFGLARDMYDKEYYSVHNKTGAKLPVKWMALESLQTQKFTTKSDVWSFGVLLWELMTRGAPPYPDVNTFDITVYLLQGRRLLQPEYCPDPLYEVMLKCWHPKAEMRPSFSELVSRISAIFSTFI

| Structure (SMILES) | IC50 [nM] | IC50 (Table 1, several values in one cell are separated by /) [nM] |
| --- | --- | --- |
| CC(Oc1cc(-c2ccc(OCCN3CCCC3)cc2)cnc1N)c1c(Cl)ccc(F)c1Cl (stereo not drawn) [Example I-355, 3-[1-(2,6-Dichlaro-3-fluoro-phenyl)-ethoxy]-5-[4-(2-pyrrolidin-1-yl-ethoxy)-phenyl]-pyridin-2-ylamine] | 680 | – |
| CC(Oc1cc(-c2ccc(OCCC3CCCN3C)cc2)cnc1N)c1c(Cl)ccc(F)c1Cl (stereo not drawn) [Example I-356, 3-[1-(2,6-Dichloro-3-fluoro-phenyl)-ethoxy]-5-{4-(2-[1-methyl-pyrrolidin-2-yl)-ethoxy]-phenyl)-pyridin-2-ylamine] | 790 | – |
| CC(Oc1cc(C#CCNC(=O)CN2CCCC2)cnc1N)c1c(Cl)ccc(F)c1Cl (stereo not drawn) [Example I-426, N-(3-{6-Amino-5-[1-(2,6-dichloro-3-fluoro-phenyl)-ynyl)-2-pridin-1-y-ehoxy]-pyridin-3-yf}-prop-2-acetamide] | < 9.1 | – |
| Nc1ncc(-c2cccnc2)cc1OCc1ccccc1 [Example I-489, 5-Benzyloxy-[3,3′]bipyridinyl-6-ylamine] | > 20000 | – |
| Nc1ncc(-c2cccnc2)cc1OCc1c(F)ccc(F)c1Cl [Example I-501, 5-(2-Chloro-3,6-difluoro-benzyloxy)-[3,3′]bipyridinyl-6-ylamine] | 282 | – |
| CC(Oc1cc(-c2ccc(C(=O)N3CCN(C)CC3)cn2)cnc1N)c1c(F)ccc(F)c1Cl (stereo not drawn) [Example I-517, {6′-Amino-5′-[1-(2-chloro-3,6-difluoro-phenyl)-ethoxy]-[2,3′]bipyridinyl-5-yl)-(4-methyl-piperazin-1-yl)-methanone] | 131 | – |
| Nc1ncc(Br)cc1OCc1c(F)cccc1Cl [I(e), 5-Bromo-3-(2-chloro-6-fluoro-benzyloxy)-pyridin-2-ylamine] | – | > 20000 |
| Nc1ncc(-c2ccc(NS(=O)(=O)CCNC3CC3)cc2)nc1OCc1c(F)ccc(F)c1Cl [II-20, 2-Cyclopropylamino-ethanesulfonic acid {4-[5-amino-6-(2-chloro-3,6-difluoro-benzyloxy)-pyrazin-2-yl]-phenyl}-amide] | 1200 | – |
| CN(C)[C@H]1CCN(C(=O)c2cccc(-c3cnc(N)c(OCc4c(F)ccc(F)c4Cl)n3)c2)C1 [II-54, {3-[5-Amino-6-(2-chloro-3,6-difluoro-benzyloxy)-pyrazin-2-yl]-phenyl}-[(3S)-3-dimethylamino-pyrrolidin-1-yl]-methanone] | 1450 | – |

Reference: patent publication US20070072874A1, “Aminoheteroaryl compounds as protein kinase inhibitors” (Sugen, Inc., priority 2003, published 2007)
